Each molecule was assayed on MCH receptors (assay: MCH receptor activity class (method not given)). Settings: activity class 1-3: percent of control at 10^-7 M or IC50.

SMILES | class
CN(C)c1cc(N[C@H]2CC[C@@H](NC(=O)OCC3c4ccccc4-c4ccccc43)CC2)nc2ccccc12 [compound 1557] | 3 (Class 3 The value of percent of control at 10^−7 M was more than 60% or the value of IC50 was more than 200 nM.)
CN(C)c1cc(N[C@H]2CC[C@@H](NC(=O)OCC(Cl)(Cl)Cl)CC2)nc2ccccc12 [compound 1558] | 3 (Class 3 The value of percent of control at 10^−7 M was more than 60% or the value of IC50 was more than 200 nM.)
CN(C)c1cc(N[C@H]2CC[C@@H](CNC(=O)OCCOCc3ccccc3)CC2)nc2ccccc12 [compound 1559] | 3 (Class 3 The value of percent of control at 10^−7 M was more than 60% or the value of IC50 was more than 200 nM.)
CN(C)c1cc(N[C@H]2CC[C@@H](CNC(=O)OCC(C)(C)C)CC2)nc2ccccc12 [compound 1560] | 3 (Class 3 The value of percent of control at 10^−7 M was more than 60% or the value of IC50 was more than 200 nM.)
COc1cc(COC(=O)NC[C@H]2CC[C@@H](Nc3cc(N(C)C)c4ccccc4n3)CC2)c([N+](=O)[O-])cc1OC [compound 1561] | 3 (Class 3 The value of percent of control at 10^−7 M was more than 60% or the value of IC50 was more than 200 nM.)
CN(C)c1cc(N[C@H]2CC[C@@H](CNC(=O)Oc3cccc(C(F)(F)F)c3)CC2)nc2ccccc12 [compound 1562] | 3 (Class 3 The value of percent of control at 10^−7 M was more than 60% or the value of IC50 was more than 200 nM.)
CN(C)c1cc(N[C@H]2CC[C@@H](CNC(=O)Oc3ccc(Br)cc3)CC2)nc2ccccc12 [compound 1563] | 3 (Class 3 The value of percent of control at 10^−7 M was more than 60% or the value of IC50 was more than 200 nM.)
COc1ccccc1OC(=O)NC[C@H]1CC[C@@H](Nc2cc(N(C)C)c3ccccc3n2)CC1 [compound 1564] | 3 (Class 3 The value of percent of control at 10^−7 M was more than 60% or the value of IC50 was more than 200 nM.)
COCCOC(=O)NC[C@H]1CC[C@@H](Nc2cc(N(C)C)c3ccccc3n2)CC1 [compound 1565] | 3 (Class 3 The value of percent of control at 10^−7 M was more than 60% or the value of IC50 was more than 200 nM.)
CCCCCCCCOC(=O)NC[C@H]1CC[C@@H](Nc2cc(N(C)C)c3ccccc3n2)CC1 [compound 1566] | 3 (Class 3 The value of percent of control at 10^−7 M was more than 60% or the value of IC50 was more than 200 nM.)
CCOC(=O)NC[C@H]1CC[C@@H](Nc2cc(N(C)C)c3ccccc3n2)CC1 [compound 1567] | 3 (Class 3 The value of percent of control at 10^−7 M was more than 60% or the value of IC50 was more than 200 nM.)
CN(C)c1cc(N[C@H]2CC[C@@H](CNC(=O)OCc3ccc([N+](=O)[O-])cc3)CC2)nc2ccccc12 [compound 1568] | 3 (Class 3 The value of percent of control at 10^−7 M was more than 60% or the value of IC50 was more than 200 nM.)
CN(C)c1cc(N[C@H]2CC[C@@H](CNC(=O)Oc3ccc4ccccc4c3)CC2)nc2ccccc12 [compound 1569] | 3 (Class 3 The value of percent of control at 10^−7 M was more than 60% or the value of IC50 was more than 200 nM.)
C=CCOC(=O)NC[C@H]1CC[C@@H](Nc2cc(N(C)C)c3ccccc3n2)CC1 [compound 1570] | 3 (Class 3 The value of percent of control at 10^−7 M was more than 60% or the value of IC50 was more than 200 nM.)
CN(C)c1cc(N[C@H]2CC[C@@H](CNC(=O)OCc3ccccc3)CC2)nc2ccccc12 [compound 1571] | 3 (Class 3 The value of percent of control at 10^−7 M was more than 60% or the value of IC50 was more than 200 nM.)
CN(C)c1cc(N[C@H]2CC[C@@H](CNC(=O)Oc3ccccc3)CC2)nc2ccccc12 [compound 1572] | 3 (Class 3 The value of percent of control at 10^−7 M was more than 60% or the value of IC50 was more than 200 nM.)
CC(C)[C@@H]1CC[C@@H](C)C[C@H]1OC(=O)NC[C@H]1CC[C@@H](Nc2cc(N(C)C)c3ccccc3n2)CC1 [compound 1573] | 3 (Class 3 The value of percent of control at 10^−7 M was more than 60% or the value of IC50 was more than 200 nM.)
Cc1ccc(OC(=O)NC[C@H]2CC[C@@H](Nc3cc(N(C)C)c4ccccc4n3)CC2)cc1 [compound 1574] | 3 (Class 3 The value of percent of control at 10^−7 M was more than 60% or the value of IC50 was more than 200 nM.)
COC(=O)NC[C@H]1CC[C@@H](Nc2cc(N(C)C)c3ccccc3n2)CC1 [compound 1575] | 3 (Class 3 The value of percent of control at 10^−7 M was more than 60% or the value of IC50 was more than 200 nM.)
CN(C)c1cc(N[C@H]2CC[C@@H](CNC(=O)OCc3ccccc3Cl)CC2)nc2ccccc12 [compound 1576] | 3 (Class 3 The value of percent of control at 10^−7 M was more than 60% or the value of IC50 was more than 200 nM.)
CN(C)c1cc(N[C@H]2CC[C@@H](CNC(=O)OCC3c4ccccc4-c4ccccc43)CC2)nc2ccccc12 [compound 1577] | 3 (Class 3 The value of percent of control at 10^−7 M was more than 60% or the value of IC50 was more than 200 nM.)

SMILES | class
CN(C)c1cc(N[C@H]2CC[C@@H](CNC(=O)OCC(Cl)(Cl)Cl)CC2)nc2ccccc12 [compound 1578] | 3 (Class 3 The value of percent of control at 10^−7 M was more than 60% or the value of IC50 was more than 200 nM.)
CN(C)c1nc(N[C@H]2CC[C@@H](NC(=O)OCCOCc3ccccc3)CC2)nc2c1CCCC2 [compound 1579] | 3 (Class 3 The value of percent of control at 10^−7 M was more than 60% or the value of IC50 was more than 200 nM.)
CN(C)c1nc(N[C@H]2CC[C@@H](NC(=O)OCC(C)(C)C)CC2)nc2c1CCCC2 [compound 1580] | 3 (Class 3 The value of percent of control at 10^−7 M was more than 60% or the value of IC50 was more than 200 nM.)
COc1cc(COC(=O)NC2CCC(Nc3nc4c(c(N(C)C)n3)CCCC4)CC2)c([N+](=O)[O-])cc1OC (stereo not drawn) [compound 1581, [4-(4-Dimethylamino-5,6,7,8-tetrahydro-quinazolin-2-ylamino)-cyclohexy]-carbamic acid 4,5-dimethoxy-2-nitro-benzyl ester] | 2 (Class 2: The value of percent of control at 10^−7 M was from 40% to 60% or the value of IC′50 was from 50 nM to 200 nM.)
CN(C)c1nc(N[C@H]2CC[C@@H](NC(=O)Oc3cccc(C(F)(F)F)c3)CC2)nc2c1CCCC2 [compound 1582] | 3 (Class 3 The value of percent of control at 10^−7 M was more than 60% or the value of IC50 was more than 200 nM.)
CN(C)c1nc(N[C@H]2CC[C@@H](NC(=O)Oc3ccc(Br)cc3)CC2)nc2c1CCCC2 [compound 1583] | 3 (Class 3 The value of percent of control at 10^−7 M was more than 60% or the value of IC50 was more than 200 nM.)
COc1ccccc1OC(=O)N[C@H]1CC[C@@H](Nc2nc3c(c(N(C)C)n2)CCCC3)CC1 [compound 1584] | 3 (Class 3 The value of percent of control at 10^−7 M was more than 60% or the value of IC50 was more than 200 nM.)
COCCOC(=O)N[C@H]1CC[C@@H](Nc2nc3c(c(N(C)C)n2)CCCC3)CC1 [compound 1585] | 3 (Class 3 The value of percent of control at 10^−7 M was more than 60% or the value of IC50 was more than 200 nM.)
CCCCCCCCOC(=O)N[C@H]1CC[C@@H](Nc2nc3c(c(N(C)C)n2)CCCC3)CC1 [compound 1586] | 3 (Class 3 The value of percent of control at 10^−7 M was more than 60% or the value of IC50 was more than 200 nM.)
CCOC(=O)N[C@H]1CC[C@@H](Nc2nc3c(c(N(C)C)n2)CCCC3)CC1 [compound 1587] | 3 (Class 3 The value of percent of control at 10^−7 M was more than 60% or the value of IC50 was more than 200 nM.)
CN(C)c1nc(N[C@H]2CC[C@@H](NC(=O)OCc3ccc([N+](=O)[O-])cc3)CC2)nc2c1CCCC2 [compound 1588] | 3 (Class 3 The value of percent of control at 10^−7 M was more than 60% or the value of IC50 was more than 200 nM.)
CN(C)c1nc(N[C@H]2CC[C@@H](NC(=O)Oc3ccc4ccccc4c3)CC2)nc2c1CCCC2 [compound 1589] | 3 (Class 3 The value of percent of control at 10^−7 M was more than 60% or the value of IC50 was more than 200 nM.)
C=CCOC(=O)N[C@H]1CC[C@@H](Nc2nc3c(c(N(C)C)n2)CCCC3)CC1 [compound 1590] | 3 (Class 3 The value of percent of control at 10^−7 M was more than 60% or the value of IC50 was more than 200 nM.)
CN(C)c1nc(N[C@H]2CC[C@@H](NC(=O)OCc3ccccc3)CC2)nc2c1CCCC2 [compound 1591] | 3 (Class 3 The value of percent of control at 10^−7 M was more than 60% or the value of IC50 was more than 200 nM.)
CN(C)c1nc(N[C@H]2CC[C@@H](NC(=O)Oc3ccccc3)CC2)nc2c1CCCC2 [compound 1592] | 3 (Class 3 The value of percent of control at 10^−7 M was more than 60% or the value of IC50 was more than 200 nM.)
CC(C)[C@@H]1CC[C@@H](C)CC1OC(=O)N[C@H]1CC[C@@H](Nc2nc3c(c(N(C)C)n2)CCCC3)CC1 (stereo partly drawn) [compound 1593] | 3 (Class 3 The value of percent of control at 10^−7 M was more than 60% or the value of IC50 was more than 200 nM.)
Cc1ccc(OC(=O)N[C@H]2CC[C@@H](Nc3nc4c(c(N(C)C)n3)CCCC4)CC2)cc1 [compound 1594] | 3 (Class 3 The value of percent of control at 10^−7 M was more than 60% or the value of IC50 was more than 200 nM.)
COC(=O)N[C@H]1CC[C@@H](Nc2nc3c(c(N(C)C)n2)CCCC3)CC1 [compound 1595] | 3 (Class 3 The value of percent of control at 10^−7 M was more than 60% or the value of IC50 was more than 200 nM.)
CN(C)c1nc(N[C@H]2CC[C@@H](NC(=O)OCc3ccccc3Cl)CC2)nc2c1CCCC2 [compound 1596] | 3 (Class 3 The value of percent of control at 10^−7 M was more than 60% or the value of IC50 was more than 200 nM.)
CN(C)c1nc(N[C@H]2CC[C@@H](NC(=O)OCC3c4ccccc4-c4ccccc43)CC2)nc2c1CCCC2 [compound 1597] | 3 (Class 3 The value of percent of control at 10^−7 M was more than 60% or the value of IC50 was more than 200 nM.)
CN(C)c1nc(N[C@H]2CC[C@@H](NC(=O)OCC(Cl)(Cl)Cl)CC2)nc2c1CCCC2 [compound 1598] | 3 (Class 3 The value of percent of control at 10^−7 M was more than 60% or the value of IC50 was more than 200 nM.)

Reference: US20050197350A1, “Novel quinoline, tetrahydroquinazoline, and pyrimidine derivatives and methods of treatment related to the use thereof” (TAISHO PHARMACEUTICAL CO., LTD., priority 2003, published 2005)
